From article PMC11726634, “Probing the Histamine H1 Receptor Binding Site to Explore Ligand Binding Kinetics” (Journal of Medicinal Chemistry, 2024)
Structures can show the parent of a compound that is named as a salt. Where two headings read alike, the source gives them in different places.

Key:
human H1R [1] = target: T1, human H1R (Homo sapiens, UniProt P35367); test: Competition association binding with [3H]-mepyramine (Motulsky and Mahan model); details: for KE (kinetic efficiency = RT/N heavy atoms): RT divided by number of heavy atoms; for pKD,calc: calculated from kon and koff of individual experiments
T1 construct: expressed in transfected cells; host or cells: HEK293T cells, transient transfection with pcDEF3, used as cell homogenate
Experimental: Binding in the presence of mianserin was assumed to be the baseline (i.e., t = 0 min). Binding over time was baseline corrected and then analyzed by nonlinear regression using the Motulsky and Mahan model[25] (eq 5). This model assumes that both the radioligand and the unlabeled ligand bind competitively to the same binding site according to a one-step binding mechanism.

human H1R [2] = target: T1, human H1R; test: [3H]-mepyramine competition binding (radioligand displacement, 4 h) on HEK293T cell homogenates; details: for pKi: [3H]mepyramine displacement curves after 4 h incubation, HEK293T cell homogenate expressing H1R, 25 °C, mean and SEM, N ≥ 3
Experimental: Protein content of membrane homogenates was determined using a BCA protein assay. […] Membrane preparation, termination of the binding reaction and quantifying radioactivity as described here, were performed for all binding experiments.Total binding and nonspecific binding (i.e., in the presence of mianserin) was analyzed by nonlinear regression using eqs 1 (nonspecific binding) and 2 (total binding).
These values were converted to Ki values using the Cheng–Prusoff equation.[24]

[3] = competitive binding of [3H]mepyramine over time, unlabeled ligand at ±10 times Ki, 25 °C, mean and SEM, N ≥ 3
[4] = competitive binding of [3H]mepyramine over time, unlabeled ligand at ±10 times Ki, 25 °C, mean and SEM, N ≥ 3, read-out: koff (converted)
[5] = compared with fragment 1 (RT 2.0 min)

T1 sequence (P35367 whole entry): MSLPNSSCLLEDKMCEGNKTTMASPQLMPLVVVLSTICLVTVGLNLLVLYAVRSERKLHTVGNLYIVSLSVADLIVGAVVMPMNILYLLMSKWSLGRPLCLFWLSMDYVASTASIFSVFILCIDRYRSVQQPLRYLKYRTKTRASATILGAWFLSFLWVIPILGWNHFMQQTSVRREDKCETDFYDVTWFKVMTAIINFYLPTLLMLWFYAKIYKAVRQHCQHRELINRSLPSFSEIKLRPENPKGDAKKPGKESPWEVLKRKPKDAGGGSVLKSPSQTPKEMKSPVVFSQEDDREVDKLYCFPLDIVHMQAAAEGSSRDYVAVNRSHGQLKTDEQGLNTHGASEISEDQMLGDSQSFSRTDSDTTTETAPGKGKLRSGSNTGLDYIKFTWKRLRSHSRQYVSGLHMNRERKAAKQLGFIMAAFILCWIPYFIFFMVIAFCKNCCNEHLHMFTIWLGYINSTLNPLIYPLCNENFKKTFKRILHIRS

Molecule | KE (kinetic efficiency = RT/N heavy atoms) (human H1R [1]) | pKD,calc (human H1R [1]; mean and SEM, N ≥ 3) | koff (human H1R [1]; [3]) | kon (human H1R [1]; [3]) | pKi (human H1R [2]) | koff (human H1R [1]; [4]) | kon (human H1R [1]; read-out: kon (converted)) | increase in RT relative to 1 (human H1R [1]; [5]) | lower binding affinity relative to 1 (human H1R [2]; compared with 1) | increase in RT compared to first-generation analog (human H1R [1]) | increase in RT relative to 1 (human H1R [1]) | decrease of association rate constant (kon) relative to 1 (human H1R [1]; compared with 1) | koff (human H1R [1]; read-out: koff (converted))
CN1CCC(Oc2cc(C(=O)O)ccc2Cc2ccccc2)CC1 [2a, 4-Benzyl-3-((1-methylpiperidin-4-yl)oxy)benzoic Acid] | 0.05 | 4.8 ± 0.1 |  |  | <5 | 0.0167 s⁻¹ | 1000 M⁻¹ s⁻¹ |  |  |  |  |  | 
CN1CCC(Oc2cc(CC(=O)O)ccc2Cc2ccccc2)CC1 [2b, 2-(4-Benzyl-3-((1-methylpiperidin-4-yl)oxy)phenyl)acetic Acid] | 0.24 | 6.8 ± 0.2 |  |  | 6.9 ± 0.1 | 0.00283 s⁻¹ | 21700 M⁻¹ s⁻¹ |  |  |  |  |  | 
CN1CCC(Oc2cc(/C=C/C(=O)O)ccc2Cc2ccccc2)CC1 [2c, (E)-3-(4-Benzyl-3-((1-methylpiperidin-4-yl)oxy)phenyl)acrylic Acid] | 0.69 | 7.0 ± 0.0 |  |  | 6.5 ± 0.1 | 0.000917 s⁻¹ | 10300 M⁻¹ s⁻¹ | 9 fold |  |  |  |  | 
CN1CCC(Oc2cc(CO)ccc2Cc2ccccc2)CC1 [2d, (4-Benzyl-3-((1-methylpiperidin-4-yl)oxy)phenyl)methanol Hemifumarate] | 0.17 | 8.6 ± 0.0 |  |  | 8.4 ± 0.1 |  | 1.63e+06 M⁻¹ s⁻¹ |  |  |  | 2 fold | 2 fold | 0.00417 s⁻¹
COc1ccc(Cc2ccccc2)c(OC2CCN(C)CC2)c1 [2e, 4-(2-Benzyl-5-methoxyphenoxy)-1-methylpiperidine Fumarate] | 0.09 | 8.1 ± 0.1 |  |  | 7.8 ± 0.1 |  | 1e+06 M⁻¹ s⁻¹ |  |  |  |  |  | 0.00833 s⁻¹
CN(C)CC/C=C1/c2ccccc2COc2ccc(CC(=O)O)cc21 [Olopatadine, olopatadine, reference compound] |  |  |  |  |  |  |  |  |  | 7 fold |  |  | 
c1ccc(Cc2ccccc2OC2CCN(CCCCc3nnn[nH]3)CC2)cc1 [compound 27, 1-(4-(1H-Tetrazol-5-yl)butyl)-4-(2-benzylphenoxy)piperidine] | 1.66 | 8.2 ± 0.02 |  |  | 8.1 ± 0.1 | 0.00035 s⁻¹ | 61700 M⁻¹ s⁻¹ |  |  |  |  |  | 

More lines, main results first:

KE (kinetic efficiency = RT/N heavy atoms) (human H1R [1]) | pKD,calc (human H1R [1]; mean and SEM, N ≥ 3) | koff (human H1R [1]; [3]) | kon (human H1R [1]; [3]) | pKi (human H1R [2]) | koff (human H1R [1]; [4]) | kon (human H1R [1]; read-out: kon (converted)) | increase in RT relative to 1 (human H1R [1]; [5]) | lower binding affinity relative to 1 (human H1R [2]; compared with 1) | increase in RT compared to first-generation analog (human H1R [1]) | Molecule | increase in RT relative to 1 (human H1R [1]) | decrease of association rate constant (kon) relative to 1 (human H1R [1]; compared with 1) | koff (human H1R [1]; read-out: koff (converted))
0.48 | 7.4 ± 0.0 | 0.00138 ± 6.7e-05 s⁻¹ | 2.08 ± 0.10 10^6· M^−1·min^−1 | 7.4 ± 0.1 |  |  |  |  |  | 2-(3-Benzyl-2-((1-methylpiperidin-4-yl)oxy)phenyl)acetic Acid [3b] |  |  | 
0.18 | 6.3 ± 0.0 |  |  | 6.2 ± 0.1 | 0.004 s⁻¹ | 8330 M⁻¹ s⁻¹ |  |  |  | CN1CCC(Oc2c(Cc3ccccc3)cccc2C(=O)O)CC1 [3a, 3-Benzyl-2-((1-methylpiperidin-4-yl)oxy)benzoic Acid] |  |  | 
0.12 | 6.7 ± 0.0 |  |  | 6.6 ± 0.1 |  | 26700 M⁻¹ s⁻¹ |  |  |  | CN1CCC(Oc2c(/C=C/C(=O)O)cccc2Cc2ccccc2)CC1 [3c, (E)-3-(3-Benzyl-2-((1-methylpiperidin-4-yl)oxy)phenyl)acrylic Acid] |  |  | 
0.06 | 7.6 ± 0.1 |  |  | 7.4 ± 0.0 | 0.0122 s⁻¹ | 450000 M⁻¹ s⁻¹ |  | 10 fold |  | CN1CCC(Oc2c(CO)cccc2Cc2ccccc2)CC1 [3d, (3-Benzyl-2-((1-methylpiperidin-4-yl)oxy)phenyl)methanol] |  |  | 
0.36 | 7.4 ± 0.0 |  |  | 7.5 ± 0.1 | 0.00183 s⁻¹ | 48300 M⁻¹ s⁻¹ |  |  |  | O=C(O)CCN1CCC(Oc2ccccc2Cc2ccccc2)CC1 [4a, 3-(4-(2-Benzylphenoxy)piperidin-1-yl)propanoic Acid Hydrochloride] |  |  | 
0.38 | 7.5 ± 0.0 |  |  | 7.6 ± 0.1 | 0.00167 s⁻¹ | 48300 M⁻¹ s⁻¹ |  |  |  | O=C(O)CCCN1CCC(Oc2ccccc2Cc2ccccc2)CC1 [4b, 4-(4-(2-Benzylphenoxy)piperidin-1-yl)butanoic Acid Hydrochloride] |  |  | 
0.85 | 7.9 ± 0.1 |  |  | 7.8 ± 0.1 | 0.00075 s⁻¹ | 53300 M⁻¹ s⁻¹ | > 10 fold |  |  | O=C(O)CCCCN1CCC(Oc2ccccc2Cc2ccccc2)CC1 [4c, 5-(4-(2-Benzylphenoxy)piperidin-1-yl)pentanoic Acid Hydrochloride] |  |  | 
0.61 | 7.7 ± 0.1 |  |  | 7.8 ± 0.0 | 0.001 s⁻¹ | 66700 M⁻¹ s⁻¹ |  |  |  | O=C(O)CCCCCN1CCC(Oc2ccccc2Cc2ccccc2)CC1 [4d, 6-(4-(2-Benzylphenoxy)piperidin-1-yl)hexanoic Acid Hydrochloride] |  |  | 
0.45 | 7.5 ± 0.0 |  |  | 7.7 ± 0.2 | 0.00127 s⁻¹ | 41700 M⁻¹ s⁻¹ |  |  |  | O=C(O)CCCCCCN1CCC(Oc2ccccc2Cc2ccccc2)CC1 [4e, 7-(4-(2-Benzylphenoxy)piperidin-1-yl)heptanoic Acid Hydrochloride] |  |  | 
0.50 | 7.5 ± 0.0 |  |  | 7.6 ± 0.1 | 0.00115 s⁻¹ | 39500 M⁻¹ s⁻¹ |  |  |  | O=C(O)CCCCCCCN1CCC(Oc2ccccc2Cc2ccccc2)CC1 [4f, 8-(4-(2-Benzylphenoxy)piperidin-1-yl)octanoic Acid Hydrochloride] |  |  | 
